The record followed here is patent US20120252896A1, “METHODS AND COMPOSITIONS FOR MODULATION OF T-CELLS VIA THE KYNURENINE PATHWAY” (priority 2009, published 2012).

Molecules are shown by their SMILES. Read-outs that look alike come from different tables or passages of the source.

The test system of test [1] is Th17 cells (CD4+ T cells under Th17 differentiating conditions; IL-17 production). Description: IL-17 production by differentiating Th17 cells in vitro (ELISA). The class given is cell-based, mouse (C57BL/6). The conditions noted are these: Mus musculus. (In general: An ELISA detects its analyte on a solid surface through an enzyme-linked reagent.)
The test system of test [2] is Th1 cells (IFNγ production). The experiment in a line: IFNγ production by differentiating Th1 cells in vitro (ELISA). The settings on record: Mus musculus. The class given is cell-based, mouse (C57BL/6).
Test [3] concerns differentiating Th17 cells. The experiment in a line: Inhibition of IL-17 production by CD4+ T cells under Th17 differentiating conditions (ELISA). The settings on record: for IC50 Th17 (IL-17 production): differentiating Th17 cells in vitro, 6 days of culture, average ±S.E.; for inhibitory effect on IL-17 production: within the range of concentrations assayed. The class given is cell-based, C57BL/6 mice.

Test [4] concerns differentiating Th1 cells. The experiment in a line: Inhibition of IFNγ production during Th1 differentiation (ELISA). It counts as cell-based, C57BL/6 mice. The settings on record: differentiating Th1 cells in vitro, 6 days of culture, average ±S.E. Here is the method:
For comparison studies with Th1 cells, T cells were differentiated in the same in vitro conditions, with only anti-murine IL-4 neutralizing antibody, recombinant murine IL-2 (10 ng/ml, eBioscience) and recombinant murine IL-12p70 (20 ng/ml, BD Biosciences) and CD3/CD28 stimulation. The concentration of IFN in culture supernatants was measured by ELISA (BD Biosciences). L-kynurenine, 3′-hydroxy-DL-kynurenine, 3′-hydroxyanthranilic acid, anthranilic acid and quinolinic acid (Sigma) were dissolved in RPMI medium under agitation at 1 mM concentration and sterile filtered. Tryptophan metabolites were added individually or in combination, in twofold dilutions, to the differentiating medium of Th1 or Th17 cells for the 6 days of culture.

The mark [5] stands for this setting: 144 h, Table II, differentiating Th17 cells, 6 days, average ± S.E., read-out: IC50, IL-17 production, Th17.
The mark [6] stands for this setting: Th17 differentiating conditions, read-out: IC50, IL-17 production.
[7] abbreviates: 144 h, Table II, differentiating Th1 cells, 6 days, average ± S.E., read-out: IC50, IFNγ production, Th1.

Consider `Nc1c(O)cccc1C(=O)O` [3′-Hydroxyanthranilic acid, 3′-hydroxyanthranilic acid], for which the IC50 in test [1] (setting [5]) was 27.7 ± 3.7 µM; in test [1] (setting [6]), 27.7 ± 3.7 µM; in test [2] (setting [7]), 57.6 ± 1 µM; in test [2] (read-out: IC50, IFNγ production during Th1 differentiation), 57.6 ± 1 µM.

For the molecule `Nc1c(O)cccc1C(=O)CC(N)C(=O)O` (racemic) [3′-Hydroxy-DL-kynurenine, 3′-hydroxy-DL-kynurenine], the IC50 came out at 68.1 ± 1.4 µM in test [1] (setting [5]), 68.1 ± 1.4 µM in test [1] (setting [6]) and 153.8 ± 1.1 µM in test [2] (setting [7]).

With `Nc1ccccc1C(=O)C[C@H](N)C(=O)O` [L-Kynurenine, L-kynurenine], the figures for the IC50 in test [1] (setting [5]), in test [1] (setting [6]) and in test [2] (setting [7]) were 100.8 ± 1 µM, 100.8 ± 1 µM and 154.4 ± 1.2 µM, respectively.

Take `Nc1ccccc1C(=O)O` [Anthranilic acid, anthranilic acid]: in test [3], the “IC50 Th17 (IL-17 production)” value is reported as “No inhibition” and the “inhibitory effect on IL-17 production” value is recorded as “no inhibitory effect”. For the same molecule, in test [4], the “IC50 Th1 (IFNγ production)” value is “No inhibition”.

Regarding `O=C(O)c1cccnc1C(=O)O` [Quinolinic acid, quinolinic acid], in test [3], the “IC50 Th17 (IL-17 production)” value is on record as “No inhibition” and the “inhibitory effect on IL-17 production” value is recorded as “no inhibitory effect”. The half-inhibitory concentration (IC50) in test [4] (Mus musculus, 144 h) was determined as 112 ± 1.4 µM.

In general, IC50 refers to the point on the concentration scale where inhibition reaches its midpoint.
